According to PubChem BioAssay (NCI):
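GI50 is the concentration that inhibits growth by half. Definition used: TGI = concentration required for complete inhibition of growth.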

Experiments:
Assay in all cases: NCI anticancer screen, dose series, 384-well format
MDA-MB-435 melanoma = system: MDA-MB-435 melanoma
SK-MEL-2 melanoma = system: SK-MEL-2 melanoma
OVCAR-4 ovarian = system: OVCAR-4 ovarian
SF-295 CNS = system: SF-295 CNS
786-0 renal = system: 786-0 renal
SW-620 colon = system: SW-620 colon
HCT-15 colon = system: HCT-15 colon
SF-268 CNS = system: SF-268 CNS
MDA-MB-468 breast = system: MDA-MB-468 breast
DU-145 prostate = system: DU-145 prostate
MALME-3M melanoma = system: MALME-3M melanoma
UACC-257 melanoma = system: UACC-257 melanoma
RPMI-8226 leukemia = system: RPMI-8226 leukemia
COLO 205 colon = system: COLO 205 colon
IGROV1 ovarian = system: IGROV1 ovarian
HL-60(TB) leukemia = system: HL-60(TB) leukemia
ACHN renal = system: ACHN renal
CCRF-CEM leukemia = system: CCRF-CEM leukemia
HCT-116 colon = system: HCT-116 colon
OVCAR-8 ovarian = system: OVCAR-8 ovarian
A498 renal = system: A498 renal
MCF7 breast = system: MCF7 breast
M14 melanoma = system: M14 melanoma
SK-MEL-5 melanoma = system: SK-MEL-5 melanoma
NCI/ADR-RES ovarian = system: NCI/ADR-RES ovarian
MDA-MB-231 breast = system: MDA-MB-231 breast
CAKI-1 renal = system: CAKI-1 renal
OVCAR-5 ovarian = system: OVCAR-5 ovarian
HT29 colon = system: HT29 colon
LOX IMVI melanoma = system: LOX IMVI melanoma
HCC-2998 colon = system: HCC-2998 colon
KM12 colon = system: KM12 colon
OVCAR-3 ovarian = system: OVCAR-3 ovarian
A549 NSCLC = system: A549 NSCLC
T-47D breast = system: T-47D breast
NCI-H322M lung = system: NCI-H322M lung
TK-10 renal = system: TK-10 renal
NCI-H522 lung = system: NCI-H522 lung
SR leukemia = system: SR leukemia
SNB-19 CNS = system: SNB-19 CNS
NCI-H226 lung = system: NCI-H226 lung
SN12C renal = system: SN12C renal
UACC-62 melanoma = system: UACC-62 melanoma
K-562 leukemia = system: K-562 leukemia
SF-539 CNS = system: SF-539 CNS
UO-31 renal = system: UO-31 renal
HOP-92 NSCLC = system: HOP-92 NSCLC
NCI-H460 NSCLC = system: NCI-H460 NSCLC
SK-MEL-28 melanoma = system: SK-MEL-28 melanoma
BT-549 breast = system: BT-549 breast
U251 glioblastoma = system: U251 glioblastoma
MOLT-4 leukemia = system: MOLT-4 leukemia
SK-OV-3 ovarian = system: SK-OV-3 ovarian
RXF 393 renal = system: RXF 393 renal
PC-3 prostate = system: PC-3 prostate

## C=CC(=O)Nc1cc(Nc2ncc(C(=O)OC(C)C)c(-c3cn(C)c4ccccc34)n2)c(OC)cc1N(C)CCN(C)C
MDA-MB-435 melanoma
  GI50: 1.83 µM
  TGI: 3.23 µM
SK-MEL-2 melanoma
  GI50: 1.57 µM
  TGI: 2.91 µM
OVCAR-4 ovarian
  GI50: 1.8 µM
  TGI: 4.21 µM
SF-295 CNS
  GI50: 7.04 µM
  TGI: 19.5 µM
786-0 renal
  GI50: 1.3 µM
  TGI: 2.58 µM
SW-620 colon
  GI50: 1.92 µM
  TGI: 3.34 µM
HCT-15 colon
  GI50: 1.83 µM
  TGI: 3.23 µM
SF-268 CNS
  GI50: 1.57 µM
  TGI: 2.96 µM
MDA-MB-468 breast
  GI50: 0.026 µM
  TGI: 1.33 µM
DU-145 prostate
  GI50: 1.15 µM
  TGI: 6.14 µM
MALME-3M melanoma
  GI50: 1.69 µM
  TGI: 3.06 µM
UACC-257 melanoma
  GI50: 1.5 µM
  TGI: 2.83 µM
RPMI-8226 leukemia
  GI50: 1.19 µM
  TGI: 2.42 µM
COLO 205 colon
  GI50: 1.74 µM
  TGI: 3.13 µM
IGROV1 ovarian
  GI50: 1.01 µM
  TGI: 2.31 µM
HL-60(TB) leukemia
  GI50: 1.65 µM
  TGI: 3 µM
ACHN renal
  GI50: 0.0647 µM
  TGI: 1.85 µM
CCRF-CEM leukemia
  GI50: 1.81 µM
  TGI: 3.2 µM
HCT-116 colon
  GI50: 1.64 µM
  TGI: 3 µM
OVCAR-8 ovarian
  GI50: 1.75 µM
  TGI: 3.31 µM
A498 renal
  GI50: 1.25 µM
  TGI: 2.53 µM
MCF7 breast
  GI50: 1.71 µM
  TGI: 3.11 µM
M14 melanoma
  GI50: 1.76 µM
  TGI: 3.14 µM
SK-MEL-5 melanoma
  GI50: 1.89 µM
  TGI: 3.29 µM
NCI/ADR-RES ovarian
  GI50: 1.55 µM
  TGI: 4.34 µM
MDA-MB-231 breast
  GI50: 1.79 µM
  TGI: 3.24 µM
CAKI-1 renal
  GI50: 1.04 µM
  TGI: 2.25 µM
OVCAR-5 ovarian
  GI50: 4.18 µM
  TGI: > 100 µM
HT29 colon
  GI50: 1.67 µM
  TGI: 3.05 µM
LOX IMVI melanoma
  GI50: 2.22 µM
  TGI: 3.67 µM
HCC-2998 colon
  GI50: 1.47 µM
  TGI: 2.8 µM
KM12 colon
  GI50: 1.76 µM
  TGI: 3.21 µM
OVCAR-3 ovarian
  GI50: 1.2 µM
  TGI: 2.68 µM
A549 NSCLC
  GI50: 1.45 µM
  TGI: 4.67 µM
T-47D breast
  GI50: 1.28 µM
  TGI: 2.56 µM
NCI-H322M lung
  GI50: 0.0143 µM
  TGI: 1.76 µM
TK-10 renal
  GI50: 0.0635 µM
  TGI: 1.71 µM
NCI-H522 lung
  GI50: < 0.01 µM
  TGI: 1.4 µM
SR leukemia
  GI50: 1.1 µM
  TGI: 2.29 µM
SNB-19 CNS
  GI50: 3.99 µM
  TGI: 15.1 µM
NCI-H226 lung
  GI50: 1.98 µM
  TGI: 4.64 µM
SN12C renal
  GI50: 1.63 µM
  TGI: 3.38 µM
UACC-62 melanoma
  GI50: 1.63 µM
  TGI: 2.99 µM
K-562 leukemia
  GI50: 1.93 µM
  TGI: 3.34 µM
SF-539 CNS
  GI50: 1.79 µM
  TGI: 3.18 µM
UO-31 renal
  GI50: 1.02 µM
  TGI: 2.19 µM
HOP-92 NSCLC
  GI50: 1.45 µM
  TGI: 2.86 µM
NCI-H460 NSCLC
  GI50: 1.63 µM
  TGI: 2.98 µM
SK-MEL-28 melanoma
  GI50: 1.71 µM
  TGI: 3.08 µM
BT-549 breast
  GI50: 1.91 µM
  TGI: 3.48 µM
U251 glioblastoma
  GI50: 1.75 µM
  TGI: 3.13 µM
MOLT-4 leukemia
  GI50: 1.13 µM
  TGI: 2.33 µM
SK-OV-3 ovarian
  GI50: 0.05 µM
  TGI: 2.04 µM
RXF 393 renal
  GI50: 1.45 µM
  TGI: 2.76 µM
PC-3 prostate
  GI50: 2.1 µM
  TGI: 4.08 µM
